Experiment: Formation as a metabolite in the mammalian system
Set-up: species or system mammal
Conditions: Example 19 is formed in vivo when Example 14 is administered
Procedure: For example, Example 19, (5-{(E)-2-(3-{6-[1-methyl-1-(methylsulfonyl)ethyl]-8-quinolinyl}phenyl)-1-[4-(methylslfonyl)phenyl]ehtenyl}-1,2,4-oxadiazol-3-yl)methanol; [drawing 2]
is administered. Accordingly, the present invention includes prodrugs that form PDE4 inhibitors in vivo as a metabolite after administering such prodrugs to a mammal. Further, this invention includes a method of treatment by a step of administering a prodrug to form in vivo an effective amount of a PDE4 inhibitor described by Formula I.

Row | SMILES | metabolite formation in vivo
1 | Cc1noc(/C(=C/c2cccc(-c3cc(C(C)(C)S(C)(=O)=O)cc4cccnc34)c2)c2ccc(S(C)(=O)=O)cc2)n1 [Example 14, 6-[1-methyl-1-(methylsulfonyl)ethyl]-8-(3-{(E/Z)-2-(3-methyl-1,2,4-oxadiazol-5-yl)-2-[4-(methylsulfonyl)phenyl]ethenyl}phenyl)quinoline] | formed in vivo as a metabolite
2 | CC(C)(c1cc(-c2cccc(/C=C(\c3ccc(S(C)(=O)=O)cc3)c3nc(CO)no3)c2)c2ncccc2c1)S(C)(=O)=O [Example 19, (5-{(E)-2-(3-{6-[1-methyl-1-(methylsulfonyl)ethyl]-8-quinolinyl}phenyl)-1-[4-(methylsulfonyl)phenyl]ethenyl}-1,2,4-oxadiazol-3-yl)methanol] | formed as a metabolite in the mammalian system
